Publication PMC6757289, “Design and Characterization of SGK3-PROTAC1, an Isoform Specific SGK3 Kinase PROTAC Degrader” (ACS Chemical Biology, 2019)

How the values were obtained:
MOXD1 = experiment: TMT global proteomic analysis of HEK293 cells; assay type: cell-based, Homo sapiens; conditions: HEK293, 0.3 μM, 8 h
Method: (§1) To establish the specificity of SGK3-PROTAC1 employing an unbiased approach, we performed quantitative Tandem–Mass–Tag (TMT)-labeled global proteomic analysis of HEK293 cells treated in the presence or absence of 0.3 μM SGK3-PROTAC1 compared to either 0.3 μM cisSGK3-PROTAC1 or DMSO for 8 h. Experiments were undertaken in triplicate, and analysis in Proteome Discoverer v2.2 using the Mascot search engine allowed relative quantification of 8766 proteins.
(§2) Figure 4 TMT proteomic analysis of HEK293 cells treated with SGK3-PROTAC1. (A) Cells were treated with DMSO (control), SGK3-PROTAC1 (0.3 μM), or cisSGK3-PROTAC1 (0.3 μM) for 8 h and lysed. Lysates were subjected to immunoblot analysis with the indicated antibodies. (B) Lysates were examined by quantitative proteomics. […]
(§3) Cell culture and proteomic sample preparation
(§4) Cells pellets were lysed with 2 ml of lysis buffer (8 M Urea, 50 mM Ammonium bicarbonate containing protease inhibitor and phosphatase inhibitor). The sample were left on ice for 15 min and were then sonicated for 5 min in ice-cold water bath under high intensity with 30 sec on and off. After sonication, benzonase® endonuclease (Merck Millipore) with the volume ratio of 1: 100 were added into the lysate to degrade DNA and RNA. The lysate were then centrifuged at 12,000 rpm for 15 min at 4 °C, and supernatants were transferred into new eppendorf tubes. The protein concentration were measured with BCA assay (Pierce™ BCA Protein Assay Kit, Thermo). The lysate from each sample was reduced with 5 mM DTT at 45 °C for 30 min. Lysates were briefly centrifuged and were cool down to room temperature before alkylation in the dark with 10 mM iodoacetamide at room temperature. The alkylation was then quenched by the addition of 5 mM DTT. Samples were first digested by Lys-C with the weight ratio of 1:200 (w/w) for 4 h at 30 °c. Then, sample were diluted with 50 mM ammonium bicarbonate to 1.5 M Urea concentration. Samples were then digested with trypsin (Pierce trypsin, Thermo) at an enzyme to protein ratio of 1:50 (w/w) at room temperature with gentle shaking for overnight.
(§5) The digest was stopped by the addition of 1% TFA (v/v), centrifuged at 10,000 g for 10 min at room temperature.
(§6) The supernatant were desalted on 200 mg SepPak tC18 cartridge (Waters). Desalted peptides were dried by vacuum centrifugation using Speedvac (Thermo).
(§7) TMT labelling and Basic C18 reverse phase (bRP) chromatography fractionation Each sample (200 μg of peptides each) was re-suspended in 100 μL of 100 mM TEAB buffer. The TMT labelling reagents were equilibrated to room temperature and 41 μL anhydrous acetonitrile was added to each reagent channel and softly vortexed for 10 min. Peptides were transferred to the corresponding TMT channels and incubated for 1 h at room temperature. The reaction was quenched with 8 μL of 5% hydroxylamine. To ensure complete labelling, 1 µg of labelled samples from each channel were analyzed by LC-MS/MS prior to mix. After evaluation, the complete TMT labelled 9 samples were then combined, acidified and dried. Sep-Pak desalting was then performed and the elution was dried to completeness.
(§8) Ultimate 3000 high-pressure liquid chromatography (HPLC) system (Dionex) were used for basic C18 reverse phase chromatography fractionation operating at 569 µL/min with two buffers: buffer A (10 mM ammonium formate, pH 10) and buffer B (80% ACN, 10 mM ammonium formate, pH 10). The desalted mixture of TMT-labelled peptides were resuspended in 200 µL of buffer A (10 mM ammonium formate, pH10) and separated on a C18 reverse phase column (4.6 × 250 mm, 3.5 μm, Waters) with a gradient from 3% B to 12.5 % B in 10 min, […]
(§9) min, 100% for 5 min, ramping to 3% B in 2.5 min and then 3% for 10 min. A total of 90 fractions (1 min per fraction) were collected before further concatenation into 30 final fractions. Each fraction was then dried and desalted over a C18 StageTip prior to analysis by mass spectrometry. […]

S100A7 = experiment: TMT global proteomic analysis of HEK293 cells; assay type: cell-based, Homo sapiens; conditions: HEK293, 0.3 μM, 8 h
Method: as §1, §2, §3, §4, §5, §6, §7, §8, §9

SDC2 = experiment: TMT global proteomic analysis of HEK293 cells; assay type: cell-based, Homo sapiens; conditions: HEK293, 0.3 μM, 8 h
Method: as §1, §2, §3, §4, §5, §6, §7, §8, §9

[1] = tested on: mTORC1-mediated phosphorylation of S6K1 at Thr389; experiment: mTORC1 signaling in CAMA-1 cells treated with PI3K or Akt inhibitor, immunoblot; assay type: cell-based; conditions: CAMA-1, 5 days 1 μM GDC0941 or AZD5363; 0.3 μM
Method: (§10) We therefore aimed to investigate the effect that degradation of SGK3 would have on this resistance pathway and whether SGK3-PROTAC1 treatment could reverse inhibitor resistance. To investigate the effect of SGK3-PROTAC1 under these conditions, we treated CAMA-1 (Figure 5A,C) or ZR-75-1 (Figure 5B,D) for 5 days with either a class 1A PI3K inhibitor (GDC0941 1 μM;[38]Figure 5A,B) or an Akt inhibitor (AZD5363, 1 μM;[39]Figure 5C,D). These cells were treated with SGK3-PROTAC1 or cisSGK3-PROTAC1 (0.3 μM) for either 5 days in combination with the inhibitors or 8 h before lysis.
(§11) Figure 5 SGK3-PROTAC1-mediated degradation of SGK3 inhibits Akt-independent activation of mTORC1 in cancer cell lines treated with Akt or PI3K inhibitors. CAMA-1 (A, C) or ZR-75-1 (B, D) were treated for 5 days with 1 μM GDC0941 (A, B) or 1 μM AZD5363 (C, D). […]
(§12) All cell treatments were carried out as described in figure legends, to a final DMSO concentration of 0.1% (v/v). Lysates were quantified. […] Lysate concentration was quantified by Bradford Assay, and 10 μg of lysate was loaded in the LDS sample buffer for SDS-PAGE electrophoresis on Novex 4–12% Bis–Tris gels. […] The signal was produced with near-infrared secondary antibodies and detected using a Licor Biosciences Odyssey System, and the signal was quantified in Image Studio Lite.

[2] = tested on: mTORC1-mediated phosphorylation of S6K1 at Thr389; experiment: mTORC1 signaling in ZR-75-1 cells treated with PI3K or Akt inhibitor, immunoblot; assay type: cell-based; conditions: ZR-75-1, 5 days 1 μM GDC0941 or AZD5363; 0.3 μM
Method: as §10, §11, §12

Row | SMILES | Abundances (Grouped) (MOXD1) | Ratio: (SGK3-PROTAC1) / (cSGK3-PROTAC1) (MOXD1) | Ratio: (compound) / (DMSO) (MOXD1) | Abundances (Grouped) (S100A7) | Ratio: (SGK3-PROTAC1) / (cSGK3-PROTAC1) (S100A7) | Ratio: (compound) / (DMSO) (S100A7) | Abundances (Grouped) (SDC2) | Ratio: (SGK3-PROTAC1) / (cSGK3-PROTAC1) (SDC2) | Ratio: (compound) / (DMSO) (SDC2) | phosphorylation of S6K1 at Thr389 [1] | phosphorylation of S6K1 at Thr389 [2]
1 | Cc1ccc(F)c(S(=O)(=O)Nc2ccc(-c3nc(OC[C@H]4CN(CCCCCCOCCOCCOCC(=O)N[C@H](C(=O)N5C[C@H](O)C[C@H]5C(=O)NCc5ccc(-c6scnc6C)cc5)C(C)(C)C)CCO4)c4cn[nH]c4n3)cc2)c1 [SGK3-PROTAC1] | 90.2 | 1.082 | 0.713 | 90.9 | 1.014 | 0.645 | 106.6 | 2.505 | 0.665 | suppressed | suppressed
2 | Cc1ccc(F)c(S(=O)(=O)Nc2ccc(-c3nc(OC[C@H]4CN(CCCCCCOCCOCCOCC(=O)N[C@H](C(=O)N5C[C@@H](O)C[C@H]5C(=O)NCc5ccc(-c6scnc6C)cc5)C(C)(C)C)CCO4)c4cn[nH]c4n3)cc2)c1 [cisSGK3-PROTAC1] | 83.4 |  | 0.656 | 90.1 |  | 1.695 | 37.8 |  | 0.266 | no significant effect | no significant effect
